# Assay results from ChEMBL document CHEMBL1150401, “Genotoxicity of alpha-asarone analogues” (Bioorg Med Chem, 2008).
# Assays:
# Salmonella typhimurium [1] = test: Mutagenic activity in Salmonella Typhimurium TA102 assessed as number of his+ revertants at 1000 ug/plate after 48 to 72 hrs by Ames test in absence of S9 fraction; assay type: toxicity, organism-based; details: salmonella enterica subsp. enterica serovar typhimurium
# Salmonella typhimurium [2] = test: Mutagenic activity in Salmonella Typhimurium TA98 assessed as number of his+ revertants at 500 ug/plate after 48 to 72 hrs by Ames test in presence of S9 fraction; assay type: toxicity, organism-based; details: salmonella enterica subsp. enterica serovar typhimurium
# Salmonella typhimurium [3] = test: Mutagenic activity in Salmonella Typhimurium TA102 assessed as number of his+ revertants at 500 ug/plate after 48 to 72 hrs by Ames test in absence of S9 fraction; assay type: toxicity, organism-based; details: salmonella enterica subsp. enterica serovar typhimurium
# Salmonella typhimurium [4] = test: Mutagenic activity in Salmonella Typhimurium TA100 assessed as number of his+ revertants at 1000 ug/plate after 48 to 72 hrs by Ames test in presence of S9 fraction; assay type: toxicity, organism-based; details: salmonella enterica subsp. enterica serovar typhimurium
# Salmonella typhimurium [5] = test: Mutagenic activity in Salmonella Typhimurium TA102 assessed as number of his+ revertants at 500 ug/plate after 48 to 72 hrs by Ames test in presence of S9 fraction; assay type: toxicity, organism-based; details: salmonella enterica subsp. enterica serovar typhimurium
# Salmonella typhimurium [6] = test: Mutagenic activity in Salmonella Typhimurium TA97 assessed as number of his+ revertants at 500 ug/plate after 48 to 72 hrs by Ames test in presence of S9 fraction; assay type: toxicity, organism-based; details: salmonella enterica subsp. enterica serovar typhimurium
# Salmonella typhimurium [7] = test: Mutagenic activity in Salmonella Typhimurium TA97 assessed as number of his+ revertants at 100 ug/plate after 48 to 72 hrs by Ames test in absence of S9 fraction; assay type: toxicity, organism-based; details: salmonella enterica subsp. enterica serovar typhimurium
# Salmonella typhimurium [8] = test: Mutagenic activity in Salmonella Typhimurium TA97 assessed as number of his+ revertants at 1000 ug/plate after 48 to 72 hrs by Ames test in absence of S9 fraction; assay type: toxicity, organism-based; details: salmonella enterica subsp. enterica serovar typhimurium
# Salmonella typhimurium [9] = test: Mutagenic activity in Salmonella Typhimurium TA102 assessed as number of his+ revertants at 100 ug/plate after 48 to 72 hrs by Ames test in presence of S9 fraction; assay type: toxicity, organism-based; details: salmonella enterica subsp. enterica serovar typhimurium
# Salmonella typhimurium [10] = test: Mutagenic activity in Salmonella Typhimurium TA97 assessed as number of his+ revertants at 500 ug/plate after 48 to 72 hrs by Ames test in absence of S9 fraction; assay type: toxicity, organism-based; details: salmonella enterica subsp. enterica serovar typhimurium
# Salmonella typhimurium [11] = test: Mutagenic activity in Salmonella Typhimurium TA98 assessed as number of his+ revertants at 1000 ug/plate after 48 to 72 hrs by Ames test in absence of S9 fraction; assay type: toxicity, organism-based; details: salmonella enterica subsp. enterica serovar typhimurium
# Salmonella typhimurium [12] = test: Cytotoxicity against Salmonella Typhimurium TA98 assessed as reduction in his+ revertants number at 500 ug/plate after 48 to 72 hrs in presence of S9 fraction; assay type: functional, Salmonella enterica subsp. enterica serovar Typhimurium; set-up: scale not given: the % may be the effect or the level left
# Salmonella typhimurium [13] = test: Mutagenic activity in Salmonella Typhimurium TA102 assessed as number of his+ revertants at 1000 ug/plate after 48 to 72 hrs by Ames test in presence of S9 fraction; assay type: toxicity, organism-based; details: salmonella enterica subsp. enterica serovar typhimurium
# Salmonella typhimurium [14] = test: Cytotoxicity against Salmonella Typhimurium TA102 assessed as reduction in his+ revertants number at 500 ug/plate after 48 to 72 hrs in presence of S9 fraction; assay type: functional, Salmonella enterica subsp. enterica serovar Typhimurium; set-up: scale not given: the % may be the effect or the level left
# Salmonella typhimurium [15] = test: Mutagenic activity in Salmonella Typhimurium TA100 assessed as number of his+ revertants at 500 ug/plate after 48 to 72 hrs by Ames test in absence of S9 fraction; assay type: toxicity, organism-based; details: salmonella enterica subsp. enterica serovar typhimurium
# Salmonella typhimurium [16] = test: Mutagenic activity in Salmonella Typhimurium TA100 assessed as number of his+ revertants at 500 ug/plate after 48 to 72 hrs by Ames test in presence of S9 fraction; assay type: toxicity, organism-based; details: salmonella enterica subsp. enterica serovar typhimurium
# L929 [17] = test: Genotoxicity against mouse L929 cells assessed as number of micronuclei at 100 ug/ml; assay type: toxicity, cell-based
# Salmonella typhimurium [18] = test: Cytotoxicity against Salmonella Typhimurium TA97 assessed as reduction in his+ revertants number at 500 ug/plate after 48 to 72 hrs in presence of S9 fraction; assay type: functional, Salmonella enterica subsp. enterica serovar Typhimurium; set-up: scale not given: the % may be the effect or the level left
# Salmonella typhimurium [19] = test: Mutagenic activity in Salmonella Typhimurium TA98 assessed as number of his+ revertants at 100 ug/plate after 48 to 72 hrs by Ames test in absence of S9 fraction; assay type: toxicity, organism-based; details: salmonella enterica subsp. enterica serovar typhimurium
# Salmonella typhimurium [20] = test: Mutagenic activity in Salmonella Typhimurium TA98 assessed as number of his+ revertants at 100 ug/plate after 48 to 72 hrs by Ames test in presence of S9 fraction; assay type: toxicity, organism-based; details: salmonella enterica subsp. enterica serovar typhimurium
# Salmonella typhimurium [21] = test: Mutagenic activity in Salmonella Typhimurium TA100 assessed as number of his+ revertants at 100 ug/plate after 48 to 72 hrs by Ames test in presence of S9 fraction; assay type: toxicity, organism-based; details: salmonella enterica subsp. enterica serovar typhimurium
# Salmonella typhimurium [22] = test: Mutagenic activity in Salmonella Typhimurium TA97 assessed as number of his+ revertants at 1000 ug/plate after 48 to 72 hrs by Ames test in presence of S9 fraction; assay type: toxicity, organism-based; details: salmonella enterica subsp. enterica serovar typhimurium
# Salmonella typhimurium [23] = test: Cytotoxicity against Salmonella Typhimurium TA102 assessed as reduction in his+ revertants number at 500 ug/plate after 48 to 72 hrs in absence of S9 fraction; assay type: functional, Salmonella enterica subsp. enterica serovar Typhimurium; set-up: scale not given: the % may be the effect or the level left
# Salmonella typhimurium [24] = test: Mutagenic activity in Salmonella Typhimurium TA102 assessed as number of his+ revertants at 100 ug/plate after 48 to 72 hrs by Ames test in absence of S9 fraction; assay type: toxicity, organism-based; details: salmonella enterica subsp. enterica serovar typhimurium
# Salmonella typhimurium [25] = test: Cytotoxicity against Salmonella Typhimurium TA100 assessed as reduction in his+ revertants number at 500 ug/plate after 48 to 72 hrs in absence of S9 fraction; assay type: functional, Salmonella enterica subsp. enterica serovar Typhimurium; set-up: scale not given: the % may be the effect or the level left
# Salmonella typhimurium [26] = test: Cytotoxicity against Salmonella Typhimurium TA97 assessed as reduction in his+ revertants number at 500 ug/plate after 48 to 72 hrs in absence of S9 fraction; assay type: functional, Salmonella enterica subsp. enterica serovar Typhimurium; set-up: scale not given: the % may be the effect or the level left
# Salmonella typhimurium [27] = test: Cytotoxicity against Salmonella Typhimurium TA98 assessed as reduction in his+ revertants number at 500 ug/plate after 48 to 72 hrs in absence of S9 fraction; assay type: functional, Salmonella enterica subsp. enterica serovar Typhimurium; set-up: scale not given: the % may be the effect or the level left
# Salmonella typhimurium [28] = test: Mutagenic activity in Salmonella Typhimurium TA97 assessed as number of his+ revertants at 100 ug/plate after 48 to 72 hrs by Ames test in presence of S9 fraction; assay type: toxicity, organism-based; details: salmonella enterica subsp. enterica serovar typhimurium
# Salmonella typhimurium [29] = test: Cytotoxicity against Salmonella Typhimurium TA100 assessed as reduction in his+ revertants number at 500 ug/plate after 48 to 72 hrs in presence of S9 fraction; assay type: functional, Salmonella enterica subsp. enterica serovar Typhimurium; set-up: scale not given: the % may be the effect or the level left
# Salmonella typhimurium [30] = test: Mutagenic activity in Salmonella Typhimurium TA100 assessed as number of his+ revertants at 100 ug/plate after 48 to 72 hrs by Ames test in absence of S9 fraction; assay type: toxicity, organism-based; details: salmonella enterica subsp. enterica serovar typhimurium
# Salmonella typhimurium [31] = test: Mutagenic activity in Salmonella Typhimurium TA100 assessed as number of his+ revertants at 1000 ug/plate after 48 to 72 hrs by Ames test in absence of S9 fraction; assay type: toxicity, organism-based; details: salmonella enterica subsp. enterica serovar typhimurium
# Salmonella typhimurium [32] = test: Mutagenic activity in Salmonella Typhimurium TA98 assessed as number of his+ revertants at 500 ug/plate after 48 to 72 hrs by Ames test in absence of S9 fraction; assay type: toxicity, organism-based; details: salmonella enterica subsp. enterica serovar typhimurium
# Salmonella typhimurium [33] = test: Mutagenic activity in Salmonella Typhimurium TA98 assessed as number of his+ revertants at 1000 ug/plate after 48 to 72 hrs by Ames test in presence of S9 fraction; assay type: toxicity, organism-based; details: salmonella enterica subsp. enterica serovar typhimurium
# L929 [34] = test: Genotoxicity against mouse L929 cells assessed as number of micronuclei at 50 ug/ml; assay type: toxicity, cell-based
# Salmonella typhimurium [35] = test: Cytotoxicity against Salmonella Typhimurium TA102 assessed as growth inhibition oh his+ revertants after 48 to 72 hrs; assay type: functional, Salmonella enterica subsp. enterica serovar Typhimurium; set-up: scale not given: the % may be the effect or the level left
# Salmonella typhimurium [36] = test: Cytotoxicity against Salmonella Typhimurium TA102 assessed as reduction in his+ revertants after 48 to 72 hrs in absence of S9 fraction; assay type: functional, Salmonella enterica subsp. enterica serovar Typhimurium; set-up: scale not given: the % may be the effect or the level left
# Salmonella typhimurium [37] = test: Cytotoxicity against Salmonella Typhimurium TA102 assessed as reduction in his+ revertants after 48 to 72 hrs in presence of S9 fraction; assay type: functional, Salmonella enterica subsp. enterica serovar Typhimurium; set-up: scale not given: the % may be the effect or the level left
# Salmonella typhimurium [38] = test: Cytotoxicity against Salmonella Typhimurium TA97 assessed as reduction in his+ revertants after 48 to 72 hrs in presence of S9 fraction; assay type: functional, Salmonella enterica subsp. enterica serovar Typhimurium; set-up: scale not given: the % may be the effect or the level left
# Salmonella typhimurium [39] = test: Cytotoxicity against Salmonella Typhimurium TA98 assessed as reduction in his+ revertants after 48 to 72 hrs in presence of S9 fraction; assay type: functional, Salmonella enterica subsp. enterica serovar Typhimurium; set-up: scale not given: the % may be the effect or the level left
# Salmonella typhimurium [40] = test: Cytotoxicity against Salmonella Typhimurium TA100 assessed as reduction in his+ revertants after 48 to 72 hrs in presence of S9 fraction; assay type: functional, Salmonella enterica subsp. enterica serovar Typhimurium; set-up: scale not given: the % may be the effect or the level left
# Salmonella typhimurium [41] = test: Cytotoxicity against Salmonella Typhimurium TA100 assessed as growth inhibition after 48 to 72 hrs; assay type: functional, Salmonella enterica subsp. enterica serovar Typhimurium; set-up: scale not given: the % may be the effect or the level left
# Salmonella typhimurium [42] = test: Cytotoxicity against Salmonella Typhimurium TA97 assessed as growth inhibition after 48 to 72 hrs; assay type: functional, Salmonella enterica subsp. enterica serovar Typhimurium; set-up: scale not given: the % may be the effect or the level left
SMILES,Activity (Salmonella typhimurium [2]),Activity (Salmonella typhimurium [3]),Activity (Salmonella typhimurium [4]),Activity (Salmonella typhimurium [5]),Activity (Salmonella typhimurium [6]),Activity (Salmonella typhimurium [7]),Activity (Salmonella typhimurium [8]),Activity (Salmonella typhimurium [9]),Activity (Salmonella typhimurium [10]),Activity (Salmonella typhimurium [11]),Activity (Salmonella typhimurium [13]),Activity (Salmonella typhimurium [15]),Activity (Salmonella typhimurium [16]),Activity (Salmonella typhimurium [19]),Activity (Salmonella typhimurium [20]),Activity (Salmonella typhimurium [21]),Activity (Salmonella typhimurium [22]),Activity (Salmonella typhimurium [24]),Activity (Salmonella typhimurium [28]),Activity (Salmonella typhimurium [30]),further results
C/C=C/c1ccc(OC)c(OC)c1OC,43,203,132,335,200,151,131,343,151,20,233,116,160,27,44,167,172,236,212,108,Activity (Salmonella typhimurium [1]): 160; Activity (Salmonella typhimurium [12]): 9%; Activity (Salmonella typhimurium [14]): 9%; Activity (L929 [17]): 3.79%; Activity (Salmonella typhimurium [18]): 9%; Activity (Salmonella typhimurium [23]): 23%; Activity (Salmonella typhimurium [25]): 23%; Activity (Salmonella typhimurium [26]): 23%; Activity (Salmonella typhimurium [27]): 23%; Activity (Salmonella typhimurium [29]): 9%; Activity (Salmonella typhimurium [31]): 100; Activity (Salmonella typhimurium [32]): 22; Activity (Salmonella typhimurium [33]): 26
C/C=C/c1c(OC)cc(OC)cc1OC,18,298,126,328,200,163,223,333,190,26,218,134,156,32,24,153,187,275,175,138,Activity (Salmonella typhimurium [1]): 195; Activity (L929 [34]): 3.44%; Activity (Salmonella typhimurium [35]): 28%; Activity (Salmonella typhimurium [31]): 148; Activity (Salmonella typhimurium [32]): 32; Activity (Salmonella typhimurium [36]): 28%; Activity (Salmonella typhimurium [37]): 27%; Activity (Salmonella typhimurium [33]): 22
C/C=C/c1cc(OC)c(OC)c(OC)c1,18,155,87,236,164,109,73,281,88,32,165,88,108,30,30,119,155,241,194,109,Activity (Salmonella typhimurium [38]): 22%; Activity (Salmonella typhimurium [39]): 22%; Activity (L929 [17]): 1.74%; Activity (Salmonella typhimurium [40]): 22%; Activity (Salmonella typhimurium [41]): 44%; Activity (Salmonella typhimurium [31]): 73; Activity (Salmonella typhimurium [32]): 24; Activity (Salmonella typhimurium [42]): 59%; Activity (Salmonella typhimurium [37]): 22%; Activity (Salmonella typhimurium [33]): 15
C/C=C/c1c(OC)ccc(OC)c1OC.CC(C)CCC[C@@H](C)[C@H]1CC[C@H]2[C@@H]3CC=C4C[C@@H](O)CC[C@]4(C)[C@H]3CC[C@]12C,27,159,162,162,126,153,141,270,137,23,49,104,186,26,35,188,171,270,191,112,Activity (Salmonella typhimurium [1]): 90; Activity (L929 [17]): 1.61%; Activity (Salmonella typhimurium [35]): 28%; Activity (Salmonella typhimurium [31]): 96; Activity (Salmonella typhimurium [32]): 26; Activity (Salmonella typhimurium [36]): 43%; Activity (Salmonella typhimurium [37]): 46%; Activity (Salmonella typhimurium [33]): 42
